From US20200032271A1, “COMBINATION THERAPY WITH LIPOSOMAL ANTISENSE OLIGONUCLEOTIDES” (Bio-Path Holdings, Inc., priority 2016, published 2020)
“And” between values parts separate entries of the source, which are not always exact repeats. Equal entries are not always repeated. [PEt] = P-ethoxy (ethyl phosphotriester) internucleoside linkage

Key:
Grb2 = test: Selective inhibition of Grb2 protein production (SDS-PAGE, blot) in BV173 and ALL-1 cells; type: cell-based, human; settings: 4 to 8 μM, three days, Crk1 as control protein
Procedure: FIGS. 5A-B. Selective inhibition of the production of Grb2 proteins. […] After three days of culture, protein-containing layers were prepared and subjected to SDS-PAGE and transferred to nitrocellulose membranes. Blots were cut into sections and incubated with antibodies specific for Grb2 (target) or Crk1 (control) protein. BP1001 is a neutral liposome incorporated with the nuclease-resistant, hydrophobic P-ethoxy antisense oligos targeted to Grb2 mRNA.

[1] = Tissue distribution study in mice (32P-labeled BP1001); type: in vivo; settings: mouse, 20 mg/kg i.v.
Procedure: Tissue distribution studies of BP1001 were conducted in mice following i.v. administration. Twenty mice (5/group) were divided into three test article groups and one control group. Test article groups were injected i.v. via the tail vein with radio-labeled (^32P) BP1001 at a dose of 20 mg of oligonucleotide per kg of body weight. Injected mice were euthanized by CO2 inhalation at 4, 24, and 48 hours following injection for organ harvest. Control animals were non-injected animals. Spleen, liver, kidney, heart, stomach, lung, and bone marrow tissue were collected from all animals, and tissue samples (50-100 mg) from each organ were weighed and processed. ^32P radioactivity was counted in a scintillation counter. Results were expressed as mean μg BP1001/g tissue. As expected, no radioactivity was detected in control animals. […] BP1001 accumulated in all tissues examined, with the highest accumulation in spleen, liver, and kidney tissue. At 4 h following injection, mean BP1001 tissue concentrations per g of tissue were: 64 μg (spleen), 50 μg (liver), 34 μg (kidney), and ranged from 12-34 μg in other tissues. […] A minimal amount of BP1001 (˜0.4 μg in two femurs) was detected in the bone marrow, where the concentration remained relatively constant for […].

[2] = Procedure: The potential toxicity of a twice weekly intravenously (slow bolus) administered BP1001 in Dutch Belted rabbits was conducted. BP1001 was administered over a 28-day period followed by a 2-week recovery phase.
Doses were administered on Study Days 1, 3, 8, 10, 15, 17, 22, and 24. The first day of dosing on the study was designated as Study Day 1. The doses were given at approximately the same time each day. Individual dose volumes were calculated based on the most recently recorded body weight for each animal. Study Day 1 dose levels were calculated on a pretest body weight.

[3] = tested on: five strains of Salmonella; test: Ames mutagenicity study; type: cell-based; settings: presence and absence of S-9
Procedure: BP1001 was tested in an Ames mutagenicity study. Sodium chloride (0.9%) was added to vials of BP1001 containing 5 mg of Grb2 oligonucleotide. The sample was tested against five strains of Salmonella in various concentrations in the presence and absence of the S-9 enzyme activation system. The sample was not mutagenic to the strains tested.

[4] = Plasma pharmacokinetics of Grb2 antisense oligo in patients; settings: human, in vivo
Procedure: Pharmacokinetic (PK) analysis was performed on plasma samples collected from refractory/relapsed patients diagnosed with AML receiving BP1001 (60 mg/m^2)+LDAC or receiving BP1001 (90 mg/m^2)+LDAC.
Blood samples for measurement of Grb2 antisense oligo concentrations were collected from patients in cohorts 7 and 8, at predose, 1, 2, 4, 6, 8, 24, 72 h post start-of-infusion (SOI). Urine samples for measurement of BP1001 concentrations were also collected from patients in cohorts 7 and 8, at start of dose-4 h, 4-8 h postdose, and 8-24 h postdose. PK blood samples were processed to plasma and analyzed using a validated method (Charles River Laboratories, Montreal, Canada) with a lower limit of quantitation (LLOQ; 0.5 ng/mL). Urine samples were analyzed using a validated method (Charles River Laboratories, Montreal, Canada) with a LLOQ of 1.00 ng/mL.
PK parameters were estimated using Phoenix pharmacokinetic software (Certara). A non-compartmental approach consistent with the IV infusion route of administration was used for parameter estimation, using an estimated infusion time of 2.5 h. All parameters were generated from Grb2 antisense oligo individual concentrations in plasma from Day 1 of Cycle 1, whenever practical. […] Parameters were estimated using nominal sampling times relative to the start of infusion. The area under the concentration vs. time curve (AUC) was calculated using the linear trapezoidal method with linear interpolation. The slope of the terminal elimination phase was determined using log linear regression on the unweighted concentration data.

[5] = tested on: peripheral blood and bone marrow blasts; test: Anti-leukemia activity in patients (peripheral blood and bone marrow blasts, response); type: in vivo, human; settings: for Bone marrow blasts (%) Nadir / Bone marrow blasts (%) Off-Rx / Peripheral blood blasts (%) Off-Rx / Peripheral blood blasts (%) Nadir: individual evaluable patients
Procedure: Peripheral blood assessments were done at baseline (within 14 days of study start), and on days 1, 8, 15, 22, at completion of cycle one, and as clinically indicated. Bone marrow assessments were done at baseline (within 14 days of study start), at completion of cycle one, cycle 2, and as clinically indicated. Baseline cytogenetics data were obtained before treatment. Molecular analysis was conducted to detect somatic mutations on the baseline bone marrow.
BP1001, as a single agent therapy, decreased >50% peripheral blood blasts in 9 of 21 patients, and decreased >50% bone marrow blasts in 3 of 21 patients (Table 8). […] Four patients completed 2 cycles of treatment and three patients completed 5 cycles of treatment (Table 8). These seven patients had diverse cytogenetics and molecular abnormalities such as JAK2 and NRAS mutations (Table 8). […]

[6] = Multiple-dose toxicity study in mice; settings: mouse
[7] = of 21 evaluable patients, single agent
[8] = 15 and 25 mg oligo/kg i.v. daily for five days

## BP1001: liposome-incorporated P-ethoxy antisense oligodeoxynucleotide (5′-ATATTTGGCGATGGCTTC-3′, SEQ ID NO: 1) specific to grb2 mRNA, in neutral DOPC liposomes (DNA, all [PEt], methylation of C not given here; incorporated in neutral DOPC liposomes)
Grb2
  Grb2 protein production: selectively inhibit Grb2 protein production
[1]
  tissue half-life in lungs: ~48 h
  tissue half-life in spleen, liver, kidney, heart and stomach: approximately 24 h
[1]; 4 h
  mean tissue concentration, kidney: 34 μg/g tissue
  mean tissue concentration, liver: 50 μg/g tissue
  mean tissue concentration, other tissues: 12-34 μg/g tissue
  mean tissue concentration, spleen: 64 μg/g tissue
[1]; relatively constant for 72 h
  amount detected in bone marrow (two femurs): ~0.4 µg
[2]; rabbit
  effects on coagulation parameters: no observed effects
[2]; rabbit, 3.75, 5.00 or 7.50 mg/kg i.v. slow bolus twice weekly, 28 days
  toxicity (clinical observations, body weights, bone marrow cytology, clinical pathology, organ weights, microscopic findings): no apparent toxicity
[3]
  mutagenicity: not mutagenic
[4]; 60 mg/m2
  Tmax: 1 h
  t1/2: 29.6 ± 8.1 h
[4]; 90 mg/m2
  Tmax: 1 h
  t1/2: 11.8 ± 5.4 h
[5]; 5 mg/m^2, no Ara-C
  Bone marrow blasts (%) Nadir: 10% and 4%
  Bone marrow blasts (%) Off-Rx: 10% and 6%
  Peripheral blood blasts (%) Off-Rx: 1% and 50% and 21% and 97% and 5% and 0%
[5]; 10 mg/m^2, no Ara-C
  Bone marrow blasts (%) Nadir: 76% and None and 38%
  Bone marrow blasts (%) Off-Rx: 76% and 80% and 38%
  Peripheral blood blasts (%) Nadir: 31% and 5% and 43%
  Peripheral blood blasts (%) Off-Rx: 72% and 63% and 74%
[5]; 20 mg/m^2, no Ara-C
  Bone marrow blasts (%) Nadir: 3%
  Peripheral blood blasts (%) Nadir: 0%
  Peripheral blood blasts (%) Off-Rx: 1% and 0%
[5]; 40 mg/m^2, no Ara-C
  Bone marrow blasts (%) Nadir: None (2×) and 54%
  Bone marrow blasts (%) Off-Rx: 36% and 80%
  Peripheral blood blasts (%) Nadir: 3% and None (2×)
  Peripheral blood blasts (%) Off-Rx: 19% and 80% and 97%
[5]; 60 mg/m^2, no Ara-C
  Bone marrow blasts (%) Nadir: 88% and None
  Bone marrow blasts (%) Off-Rx: 88% and 92%
  Peripheral blood blasts (%) Nadir: 93% and 7% and 17%
  Peripheral blood blasts (%) Off-Rx: 98% and 24% and 82%
[5]; 90 mg/m^2, no Ara-C
  Bone marrow blasts (%) Nadir: None and 22%
  Bone marrow blasts (%) Off-Rx: 17% and 22%
  Peripheral blood blasts (%) Nadir: 0% and None (2×)
  Peripheral blood blasts (%) Off-Rx: 0% and 42% and 92%
[5]; BP1001 5 mg/m^2, no Ara-C
  Peripheral blood blasts (%) Nadir: 0% (2×) and 7% and 5% and 82% and 2%
[5]; [7]
  patients with improvement of leukemia cutis: two
  patients with transient decline in blasts: six
[5]; of 21 evaluable patients, single agent (Part A)
  patients with ≥50% reduction in peripheral or bone marrow blasts: 10
[5]; one CML blast crisis patient with T315I, from 81%
  peripheral blasts after four BP1001 infusions: 5%
[5]; single agent therapy
  patients with >50% decrease of bone marrow blasts: 3 of 21
  patients with >50% decrease of peripheral blood blasts: 9 of 21
[6]; [8]
  WBC counts at two weeks post-injection, persisting at six weeks: Reduction
  morbidity or mortality: No signs of morbidity or mortality
[6]; multiple i.v. 15-25 mg/kg
  drug-related lesions in examined organs: no drug-related lesions
